{NH2C3} = aminopropyl group attached via phosphodiester linkage
Assays:
[1] = in vivo; cited from earlier work
[2] = cited from earlier work
[3] = thorium(IV) complexes; cited from earlier work
[4] = Gel electrophoresis mobility shift assay of complexation with metal cations
Excerpt: LUMI4® is an isophthalamide class macrocyclic chelate that selectively coordinates to metal cations including those of the lanthanide series. For use in certain applications, such as acting as a bifunctional chelating agent to attach a radioisotope to a site-directing molecule, it is necessary that the chelate be able to coordinate to the metal ion of interest in a kinetically facile and thermodynamically stable manner. […] In this experiment, a conjugate of LUMI4® with a small (18 base length) DNA oligomer was treated with a solution containing a metal cation. The electrophoretic mobility of the conjugate on a polyacrylamide gel was then compared with that of the conjugate which was not exposed to the solution of metal cation. […] To provide an additional comparison, the gel electrophoretic mobility of the DNA oligomer that was not conjugated to LUMI4® was measured with and without exposure to the metal cation solution under identical conditions.
In particular, a solution of DNA oligomer (6 μL, 5 μM, all concentrations final) was mixed with a solution of metal cation (2 μL, 250 μM) or an equal volume of water. The solution was incubated at 55° C. for five minutes, whereupon the solutions were allowed to cool to ambient temperature and a solution of 50% formamide (7 μL) was added. The resulting solution was again heated to 55° C. for five minutes and then cooled to −20° C. briefly. […]

O=C(NCCCN(CCCCN(CCCNC(=O)c1cccc(=O)n1O)C(=O)c1cccc(=O)n1O)C(=O)c1cccc(=O)n1O)c1cccc(=O)n1O [3,4,3-LI(1,2-HOPO)]
toxicity at effective dosage [1]: acceptably low toxicity | effective dosage ([2]; in vivo): 0.01 to 0.1 µmol/kg | removal of Th(IV), Pu(IV) or Am(III) from the wound site and body compared with CaNa3-DTPA ([2]; injected ip or infiltrated into a wound): much more effective | oral activity ([2]; oral): useful oral activity | removal of injected or inhaled Pu(IV) and Am(III) compared with CaNa3-DTPA ([2]; rodents, injected, infused or oral): removes more

O=C(O)CN(CCN(CC(=O)O)CC(=O)O)CCN(CC(=O)O)CC(=O)O [DTPA]
Log K1 [3]: 30.34

NC(=O)CCCC(=O)NCCCCC1CN2CCNC(=O)c3cccc(c3O)C(=O)NCCN(CCNC(=O)c3cccc(c3O)C(=O)N1)CCN1CCNC(=O)c3cccc(c3O)C(=O)NCCN(CCNC(=O)c3cccc(c3O)C(=O)NCC1)CC2 (centres unmarked) [LUMI4®]
stability of metal complex upon electrophoresis in the presence of the competing chelate EDTA ([4]; LUMI4 conjugated to a DNA oligomer): forms a stable complex

unmodified oligonucleotide: DNA 18-base oligonucleotide 5′-AAGGTCATCCATGACAAC-3′ (SEQ ID NO: 1) with 5′-aminopropyl group (DNA, 5' {NH2C3}, backbone not given here)
gel mobility following treatment with the metal cation solution ([4]; 20% polyacrylamide gel, 8 M urea, running buffer with 2 mM EDTA): unaffected

Source: patent US20200024234A1, “RADIOPHARMACEUTICAL COMPLEXES” (LUMIPHORE, INC., priority 2009, published 2020)
